The text below walks through data of publication PMC11025498, “First-in-human Phase I Trial of TPST-1120, an Inhibitor of PPARα, as Monotherapy or in Combination with Nivolumab, in Patients with Advanced Solid Tumors” (Cancer Research Communications, 2024).

Like-named read-outs stand apart in the source and are kept apart here.

The subject of assay [1] is RCC. Description: prior regimens of the RCC responders. It counts as in vivo, human. Particulars: prior regimens of person RCC responder.
Assay [2] relates to patients with RCC. Particulars: nivolumab monotherapy after previous ICI therapy, retrospective, cited from earlier work.
Assay [3] has as its system patients with PD-L1 combined positive score ≤1. Details: method as in PMID 32359091, PMID 32352498, PMID 35611499, PMID 34907910. Particulars: CCA, KEYNOTE-158; cited from earlier work.

For the molecule `COc1cc2nccc(Oc3ccc(NC(=O)C4(C(=O)Nc5ccc(F)cc5)CC4)cc3)c2cc1OC` [Cabozantinib], the Duration in assay [1] came out at 6.3 mo.
Still for that read-out and setting: the figure for `CO[C@H]1C[C@@H]2CC[C@@H](C)[C@@](O)(O2)C(=O)C(=O)N2CCCC[C@H]2C(=O)O[C@H]([C@H](C)C[C@@H]2CC[C@@H](OCCO)[C@H](OC)C2)CC(=O)[C@H](C)/C=C(\C)[C@@H](O)[C@@H](OC)C(=O)[C@H](C)C[C@H](C)/C=C/C=C/C=C/1C` [Everolimus] is 6.1 mo.
In the case of nivolumab: PD-1 inhibitor, the ORR in assay [2] (ref 33) is given as 16%; in assay [2] (ref 34), 23%.
As for “pembrolizumab: ICI monotherapy in the KEYNOTE-158 trial”, the ORR in assay [3] is 2.9%.
